Holding throughout (assay): biochemical
In assay [1] the target is T1, GlmU (Mycobacterium tuberculosis, UniProt P9WMN3). Set-up: Inhibition constants from double reciprocal plots, DTNB acetyltransferase assay with varied substrate.
In assay [2] the target is T1, GlmU. Details: DTNB colorimetric assay of GlmU acetyltransferase activity, absorbance at 405 nm.
The target in assay [3] is T1, GlmU. Set-up: Inhibition constants from double reciprocal plots, DTNB acetyltransferase assay with varied substrate. The source holds these as a separate data set.
The target of assay [4] is T1, GlmU. Set-up: Inhibition constants from double reciprocal plots, DTNB acetyltransferase assay with varied substrate. The source holds these as a separate data set.

Where two headings read alike, the source gives them in different places.

T1 sequence (P9WMN3 2-495): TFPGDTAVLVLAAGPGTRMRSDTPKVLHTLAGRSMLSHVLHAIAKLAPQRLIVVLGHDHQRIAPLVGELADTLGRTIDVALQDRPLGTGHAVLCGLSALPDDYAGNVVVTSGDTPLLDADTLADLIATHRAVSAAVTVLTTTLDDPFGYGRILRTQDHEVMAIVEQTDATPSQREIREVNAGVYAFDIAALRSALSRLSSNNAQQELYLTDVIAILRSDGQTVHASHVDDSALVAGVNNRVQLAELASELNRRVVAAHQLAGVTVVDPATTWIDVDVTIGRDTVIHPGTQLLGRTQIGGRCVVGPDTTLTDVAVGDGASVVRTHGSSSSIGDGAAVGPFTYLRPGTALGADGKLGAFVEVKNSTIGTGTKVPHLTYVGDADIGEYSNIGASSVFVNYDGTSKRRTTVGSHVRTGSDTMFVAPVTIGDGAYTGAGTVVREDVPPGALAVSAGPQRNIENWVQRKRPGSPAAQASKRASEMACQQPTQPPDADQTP

As for `O=c1oc2ccccc2c2c1Sc1ccccc1N2` [BCTZ, 6,12-dihydrobenzo[b]chromeno[4,3-e][1,4]thiazin-6-one], the results for the Ki on GlmU [1] and on GlmU [3] were 81.6 µM and 82.8 µM, respectively. In addition, the IC50 against GlmU [2] worked out at 61.7 µM.

Turning to `O=C1C=CC(=O)N1c1cccc(N2C(=O)C=CC2=O)c1` [DHPP, 1-[3-(2,5-dioxo-2,5-dihydro-1H-pyrrol-1-yl)phenyl]-2,5-dihydro-1H-pyrrole-2,5-dione], the Ki on GlmU [4] was found to be 26.4 µM; at GlmU [3] it was 26.3 µM. The IC50 against GlmU [2] came out at 10.3 µM.

For `O=C1CC(=O)c2c1cccc2[N+](=O)[O-]` [NID, 4-nitroindane-1,3-dione], on GlmU [2], the IC50 was determined as 124 µM.

As to `O=C1NC(=S)SC1=Cc1ccc(OCc2ccc([N+](=O)[O-])cc2)cc1` [NBTT, 5-{4-[(4-nitrobenzyl)oxy]benzylidene}-2-thioxo-1,3-thiazolan-4-one], the Ki was determined as 40.2 µM at GlmU [4] and 41.3 µM at GlmU [3]. At GlmU [2], this compound gave an IC50 of 65.1 µM.

Regarding `Cc1ccc(C)n1-c1ccsc1C(=O)O` [MPTC, 3-(2,5-dimethyl-1H-pyrrol-1-yl)thiophene-2-carboxylic acid], the IC50 against GlmU [2] turned out to be 159 µM.

Source of the values: paper PMC6652808, “The Inhibitory Effect of GlmU Acetyltransferase Inhibitor TPSA on Mycobacterium tuberculosis May Be Affected Due to Its Methylation by Methyltransferase Rv0560c” (Frontiers in Cellular and Infection Microbiology, 2019).
